Source: patent US6982286B2, “Carbocyclic hydrazino inhibitors of copper-containing amine oxidases” (Biotie Therapies Corp., priority 2001, dated 2006)
Where a name gives a salt, the structure may show the parent alone.

Experiments:
[1] = target: T1, Recombinant human VAP-1 SSAO (Homo sapiens, UniProt Q16853); experiment: In vitro inhibition of VAP-1 SSAO activity (coupled colourimetric method); assay type: biochemical; details: for Selectivity for VAP-1 SSAO over MAO: ratio of total rat MAO IC50 to human VAP-1 SSAO IC50; for IC50: recombinant human VAP-1 SSAO in CHO cell lysate, 1 mM benzylamine, pH 7.6, 37° C., read-out: VAP-1 SSAO inhibitory activity IC50
T1 construct: expressed in transfected cells; host or cells: Chinese Hamster Ovary (CHO) cells; NP40 lysate supernatant used directly
T1 sequence (Q16853 1-763): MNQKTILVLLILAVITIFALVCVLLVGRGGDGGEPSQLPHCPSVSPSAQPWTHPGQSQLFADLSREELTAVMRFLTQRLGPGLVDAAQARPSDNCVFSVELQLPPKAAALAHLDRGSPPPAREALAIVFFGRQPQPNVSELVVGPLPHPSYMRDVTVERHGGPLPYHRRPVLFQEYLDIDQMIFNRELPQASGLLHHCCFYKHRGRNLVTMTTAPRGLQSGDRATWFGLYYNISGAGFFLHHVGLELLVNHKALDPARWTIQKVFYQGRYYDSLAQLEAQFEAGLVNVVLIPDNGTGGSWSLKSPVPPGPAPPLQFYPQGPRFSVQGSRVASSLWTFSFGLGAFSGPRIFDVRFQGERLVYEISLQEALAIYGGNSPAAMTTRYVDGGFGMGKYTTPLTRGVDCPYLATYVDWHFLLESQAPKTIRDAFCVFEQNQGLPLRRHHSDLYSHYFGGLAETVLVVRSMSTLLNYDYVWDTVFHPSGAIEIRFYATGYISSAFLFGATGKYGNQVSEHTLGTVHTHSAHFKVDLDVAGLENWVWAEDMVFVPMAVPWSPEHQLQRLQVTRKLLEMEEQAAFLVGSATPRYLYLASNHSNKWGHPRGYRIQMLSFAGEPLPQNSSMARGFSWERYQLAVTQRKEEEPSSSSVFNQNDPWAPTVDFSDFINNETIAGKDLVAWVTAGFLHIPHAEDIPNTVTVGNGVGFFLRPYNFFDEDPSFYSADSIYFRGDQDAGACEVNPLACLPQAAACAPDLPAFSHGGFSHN
Protocol: VAP-1 SSAO activity was measured using the coupled colourimetric method essentially as described for monoamine oxidase and related enzymes (Holt, A., et al., Anal. Biochem. 244:384-392 (1997)). Recombinant human VAP-1 SSAO expressed in Chinese Hamster Ovary (CHO) cells was used as a source of VAP-1 SSAO for activity measurements. Native CHO cells have negligible SSAO activity. These cells and their culture have previously been described (Smith, D. J., et al., J. Exp. Med. 188:17-27 (1998)). A cell lysate was prepared by suspending approximately 3.6×10^8 cells in 25 ml lysis buffer (150 mM NaCl, 10 mM Tris-Base pH 7.2, 1.5 mM MgCl2, 1% NP40) and incubating at 4° C. overnight on a rotating table. The lysate was clarified by centrifugation at 18000 g for 5 min at room temperature and the supernatant used directly in the assay. The VAP1 SSAO assay was performed in 96 well microtitre plates as follows. To each well was added a predetermined amount of inhibitor if required. The amount of inhibitor varied in each assay but was generally at a final concentration of between 1 nM and 50 μM. Controls lacked inhibitor. The inhibitor was in total volume of […] in water. The following reagents were then added. 0.2M potassium phosphate buffer pH 7.6 to a total reaction volume of 200 μl, 45 μl of freshly made chromogenic solution containing 1 mM 2,4-dichlorophenol, 500 μM 4-aminoantipyrine and 4 U/ml horseradish peroxidase and an amount of CHO cell lysate containing VAP-1 SSAO that caused a change of 0.6 A490 per h. This was within the linear response range of the assay. The plates were incubated for 30 min at 37° C. and the background absorbance measured at 490 nm using a Wallac Victor II multilabel counter. To initiate the enzyme reaction 20 μl 10 mM benzylamine (final concentration=1 mM) was added and the plate incubated for 1 h at 37° C. The increase in absorbance, reflecting VAP-1 SSAO activity, was measured at490 nm. Inhibition was presented as percent inhibition compared to control after correcting for background absorbance and IC50 values calculated using GraphPad Prism.

| SMILES | melting point [°C] | Selectivity for VAP-1 SSAO over MAO [1] | IC50 [1] [nM] | Selectivity for VAP-1 SSAO over MAO ([1]; fumarate) | Selectivity for VAP-1 SSAO over MAO ([1]; succinate) |
| --- | --- | --- | --- | --- | --- |
| CN(N)[C@H]1Cc2ccccc2[C@@H]1O (as salt: maleate) [Compound 1, (1S,2S)-2-(1-methylhydrazino)-1-indanol hydrogenmaleate] | 104 to 106 | – | – | – | – |
| CN(N)[C@@H]1Cc2ccccc2[C@H]1O (as salt: maleate) [Compound 6, (1R,2R)-2-(1-methylhydrazino)-1-indanol hydrogenmaleate] | 104 to 106 | – | – | – | – |
| CCN(N)[C@@H]1Cc2ccccc2[C@H]1O (racemic) [Compound 2, (1R*,2R*)-2-(1-Ethylhydrazino)-1-indanol hydrogenmaleate] | – | 4 | 5300 | – | – |
| CN(N)[C@@H]1Cc2ccccc2[C@H]1O (relative stereo) [Compound 4, (1R,*2R*)-2-(1-Methylhydrazino)-1-indanol hydrogenmaleate] | – | 32 | 660 | – | – |
| CN(N)[C@H]1Cc2ccccc2[C@@H]1O [Compound 1, (1S,2S)-2-(1-methylhydrazino)-1-indanol hydrogenmaleate] | – | 31 | 700 | – | – |
| CN(N)[C@@H]1Cc2ccccc2[C@H]1O [Compound 6, (1R,2R)-2-(1-methylhydrazino)-1-indanol hydrogenmaleate] | – | 29 | 650 | – | – |
| CN(N)[C@H]1Cc2ccccc2[C@@H]1O [Compound 7, (1S,2S)-2-(1-methylhydrazino)-1-indanol fumarate] | – | – | 470 | 28 | – |

Continued, values first:

| melting point [°C] | Selectivity for VAP-1 SSAO over MAO [1] | IC50 [1] [nM] | Selectivity for VAP-1 SSAO over MAO ([1]; fumarate) | Selectivity for VAP-1 SSAO over MAO ([1]; succinate) | SMILES |
| --- | --- | --- | --- | --- | --- |
| 113 to 115 | – | – | – | – | CO[C@H]1c2ccccc2C[C@@H]1N(C)N (as salt: maleate) [Compound 19, (1S,2S)-2-(1-methylhydrazino)-1-methoxyindane Hydrogenmaleate] |
| – | – | 560 | 21 | – | CN(N)[C@@H]1Cc2ccccc2[C@H]1O [Compound 8, (1R,2R)-2-(1-methylhydrazino)-1-indanol fumarate] |
| – | – | 620 | – | 26 | CN(N)[C@H]1Cc2ccccc2[C@@H]1O [Compound 9, (1S,2S)-2-(1-methylhydrazino)-1-indanol succinate] |
| – | – | 660 | – | 23 | CN(N)[C@@H]1Cc2ccccc2[C@H]1O [Compound 10, (1R,2R)-2-(1-methylhydrazino)-1-indanol succinate] |
| – | 31 | 710 | – | – | CN(N)[C@H]1Cc2ccccc2[C@@H]1O [Compound 11, (1S,2S)-2-(1-methylhydrazino)-1-indanol (S,S)-tartrate] |
| – | 30 | 660 | – | – | CN(N)[C@@H]1Cc2ccccc2[C@H]1O [Compound 12, (1R,2R)-2-(1-methylhydrazino)-1-indanol (S,S)-tartrate] |
| – | 29 | 660 | – | – | CN(N)[C@H]1Cc2ccccc2[C@@H]1O [Compound 13, (1S,2S)2-(1-methylhydrazino)-1-indanol (R,R)-tartrate] |
| – | 28 | 710 | – | – | CN(N)[C@@H]1Cc2ccccc2[C@H]1O [Compound 14, (1R,2R)-2-(1-methylhydrazino)-1-indanol (R,R)-tartrate] |
| – | 3 | 4320 | – | – | CO[C@H]1c2ccccc2C[C@@H]1N(C)N [Compound 19, (1S,2S)-2-(1-methylhydrazino)-1-methoxyindane Hydrogenmaleate] |
